Laboratory results as given in ChEMBL document CHEMBL1201862, “PubChem BioAssay data set” (2004).
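1) Cells in 96-well plates. 2) Compound, 48 h, 5 concentrations. 3) Linear interpolation between surrounding doses. 4) Unreached endpoint = highest concentration. GI50 marks 50% less growth.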 Activity calls are given as the source filed them. Rule as the data show it: active = GI50 up to about 1.1 µM and inactive = higher.

Key:
Assay in all cases: NCI anticancer screen, dose series, 48 h
MDA-MB-231 = test system: MDA-MB-231
NCI-H23 = test system: NCI-H23
SK-MEL-28 = test system: SK-MEL-28
SF-268 = test system: SF-268
CCRF-CEM = test system: CCRF-CEM
HL-60 = test system: HL-60
TK-10 = test system: TK-10
HCT-15 = test system: HCT-15
HOP-92 = test system: HOP-92
SK-MEL-5 = test system: SK-MEL-5
SNB-19 = test system: SNB-19
SK-OV-3 = test system: SK-OV-3
MCF7 = test system: MCF7
LOX IMVI = test system: LOX IMVI
M14 = test system: M14
Hs-578T = test system: Hs-578T
COLO 205 = test system: COLO 205
UACC-62 = test system: UACC-62
OVCAR-3 = test system: OVCAR-3
SN12C = test system: SN12C
KM12 = test system: KM12
SF-295 = test system: SF-295
786-0 = test system: 786-0
A498 = test system: A498
SNB-75 = test system: SNB-75
MDA-MB-435 = test system: MDA-MB-435
IGROV-1 = test system: IGROV-1
HCC 2998 = test system: HCC 2998
OVCAR-8 = test system: OVCAR-8
CAKI-1 = test system: CAKI-1
U-251 = test system: U-251
HT-29 = test system: HT-29
PC-3 = test system: PC-3
SK-MEL-2 = test system: SK-MEL-2
UO-31 = test system: UO-31
HCT-116 = test system: HCT-116
NCI-H460 = test system: NCI-H460
Malme-3M = test system: Malme-3M
UACC-257 = test system: UACC-257
ACHN = test system: ACHN
NCI/ADR-RES = test system: NCI/ADR-RES
NCI-H522 = test system: NCI-H522
MDA-N = test system: MDA-N
DU-145 = test system: DU-145
EKVX = test system: EKVX
A549 = test system: A549
SW-620 = test system: SW-620
BT-549 = test system: BT-549
OVCAR-4 = test system: OVCAR-4
NCI-H226 = test system: NCI-H226
OVCAR-5 = test system: OVCAR-5
RXF 393 = test system: RXF 393
HOP-62 = test system: HOP-62
K562 = test system: K562
SF-539 = test system: SF-539
RPMI-8226 = test system: RPMI-8226
MOLT-4 = test system: MOLT-4
SR = test system: SR

SMILES: CC(C)CNCCc1ccccn1
- GI50 (MDA-MB-231): > 100 µM (inactive)
- GI50 (NCI-H23): > 100 µM (inactive)
- GI50 (SK-MEL-28): > 100 µM (inactive)
- GI50 (SF-268): > 100 µM (inactive)
- GI50 (CCRF-CEM): > 100 µM (inactive)
- GI50 (HL-60): > 100 µM (inactive)
- GI50 (TK-10): > 100 µM (inactive)
- GI50 (HCT-15): > 100 µM
- GI50 (HOP-92): > 100 µM (inactive)
- GI50 (SK-MEL-5): > 100 µM (inactive)
- GI50 (SNB-19): > 100 µM (inactive)
- GI50 (SK-OV-3): > 100 µM (inactive)
- GI50 (MCF7): > 100 µM (inactive)
- GI50 (LOX IMVI): > 100 µM (inactive)
- GI50 (M14): > 100 µM (inactive)
- GI50 (Hs-578T): > 100 µM (inactive)
- GI50 (COLO 205): > 100 µM (inactive)
- GI50 (UACC-62): > 100 µM (inactive)
- GI50 (OVCAR-3): > 100 µM (inactive)
- GI50 (SN12C): > 100 µM (inactive)
- GI50 (KM12): > 100 µM (inactive)
- GI50 (SF-295): > 100 µM (inactive)
- GI50 (786-0): > 100 µM (inactive)
- GI50 (A498): > 100 µM (inactive)
- GI50 (SNB-75): > 100 µM (inactive)
- GI50 (MDA-MB-435): > 100 µM (inactive)
- GI50 (IGROV-1): > 100 µM (inactive)
- GI50 (HCC 2998): > 100 µM (inactive)
- GI50 (OVCAR-8): > 100 µM (inactive)
- GI50 (CAKI-1): > 100 µM (inactive)
- GI50 (U-251): > 100 µM (inactive)
- GI50 (HT-29): > 100 µM (inactive)
- GI50 (PC-3): > 100 µM (inactive)
- GI50 (SK-MEL-2): > 100 µM (inactive)
- GI50 (UO-31): > 100 µM (inactive)
- GI50 (HCT-116): > 100 µM (inactive)
- GI50 (NCI-H460): > 100 µM (inactive)
- GI50 (Malme-3M): > 100 µM (inactive)
- GI50 (UACC-257): > 100 µM (inactive)
- GI50 (ACHN): > 100 µM (inactive)
- GI50 (NCI/ADR-RES): > 100 µM (inactive)
- GI50 (NCI-H522): > 100 µM (inactive)
- GI50 (MDA-N): > 100 µM (inactive)
- GI50 (DU-145): > 100 µM (inactive)
- GI50 (EKVX): > 100 µM (inactive)
- GI50 (A549): > 100 µM (inactive)
- GI50 (SW-620): > 100 µM (inactive)
- GI50 (BT-549): > 100 µM (inactive)
- GI50 (OVCAR-4): > 100 µM (inactive)
- GI50 (NCI-H226): > 100 µM (inactive)
- GI50 (OVCAR-5): > 100 µM (inactive)
- GI50 (RXF 393): > 100 µM (inactive)
- GI50 (HOP-62): > 100 µM (inactive)

SMILES: CC(C)Oc1c(-c2ccc(F)cc2)c(O)c2c3c1oc(=O)n3C=CC2C (centres undefined)
- GI50 (MDA-MB-231): 14.4 µM (inactive)
- GI50 (NCI-H23): 11.8 µM (inactive)
- GI50 (SK-MEL-28): 15.7 µM (inactive)
- GI50 (SF-268): 17.3 µM (inactive)
- GI50 (CCRF-CEM): 11 µM (inactive)
- GI50 (HL-60): 10.4 µM (inactive)
- GI50 (TK-10): 16.9 µM (inactive)
- GI50 (HCT-15): 14.9 µM
- GI50 (HOP-92): 13.9 µM (inactive)
- GI50 (SK-MEL-5): 10.8 µM (inactive)
- GI50 (SNB-19): 15.8 µM (inactive)
- GI50 (K562): 6.59 µM (inactive)
- GI50 (SK-OV-3): 24 µM (inactive)
- GI50 (MCF7): 11.3 µM (inactive)
- GI50 (LOX IMVI): 14.5 µM (inactive)
- GI50 (M14): 15.1 µM (inactive)
- GI50 (Hs-578T): 20.2 µM (inactive)
- GI50 (COLO 205): 16 µM (inactive)
- GI50 (UACC-62): 14.6 µM (inactive)
- GI50 (OVCAR-3): 14.4 µM (inactive)
- GI50 (SN12C): 11.5 µM (inactive)
- GI50 (KM12): 13.2 µM (inactive)
- GI50 (SF-295): 15.2 µM (inactive)
- GI50 (786-0): 14.7 µM (inactive)
- GI50 (A498): 15 µM (inactive)
- GI50 (SNB-75): 14.8 µM (inactive)
- GI50 (MDA-MB-435): 17.9 µM (inactive)
- GI50 (IGROV-1): 15.3 µM (inactive)
- GI50 (HCC 2998): 13.4 µM (inactive)
- GI50 (OVCAR-8): 15.8 µM (inactive)
- GI50 (CAKI-1): 14.2 µM (inactive)
- GI50 (U-251): 15.5 µM (inactive)
- GI50 (SF-539): 13.4 µM (inactive)
- GI50 (HT-29): 16.6 µM (inactive)
- GI50 (RPMI-8226): 6.27 µM (inactive)
- GI50 (PC-3): 7.05 µM (inactive)
- GI50 (SK-MEL-2): 17.8 µM (inactive)
- GI50 (UO-31): 12.2 µM (inactive)
- GI50 (HCT-116): 12.9 µM (inactive)
- GI50 (NCI-H460): 14.2 µM (inactive)
- GI50 (Malme-3M): 22.3 µM (inactive)
- GI50 (UACC-257): 13.2 µM (inactive)
- GI50 (ACHN): 14.5 µM (inactive)
- GI50 (NCI/ADR-RES): 13.8 µM (inactive)
- GI50 (NCI-H522): 12.1 µM (inactive)
- GI50 (MDA-N): 12.4 µM (inactive)
- GI50 (DU-145): 13.1 µM (inactive)
- GI50 (EKVX): 14.3 µM (inactive)
- GI50 (A549): 13 µM (inactive)
- GI50 (SW-620): 14.3 µM (inactive)
- GI50 (BT-549): 14 µM (inactive)
- GI50 (OVCAR-4): 10.7 µM (inactive)
- GI50 (MOLT-4): 6.07 µM (inactive)
- GI50 (NCI-H226): 13.9 µM (inactive)
- GI50 (OVCAR-5): 24.7 µM (inactive)
- GI50 (RXF 393): 14 µM (inactive)
- GI50 (HOP-62): 14.8 µM (inactive)

SMILES: Cc1cccc(C)c1N1C(=O)C2c3[nH]c4ccccc4c3C3CCC(C(C)(C)C)CC3C2C1=O (centres undefined)
- GI50 (MDA-MB-231): 11.9 µM (inactive)
- GI50 (NCI-H23): 14.8 µM (inactive)
- GI50 (SK-MEL-28): 19.9 µM (inactive)
- GI50 (SF-268): 14.4 µM (inactive)
- GI50 (CCRF-CEM): 12.6 µM (inactive)
- GI50 (HL-60): 12.8 µM (inactive)
- GI50 (TK-10): 17.6 µM (inactive)
- GI50 (HCT-15): 11.4 µM
- GI50 (HOP-92): 6.32 µM (inactive)
- GI50 (SK-MEL-5): 14.3 µM (inactive)
- GI50 (SNB-19): 62.4 µM (inactive)
- GI50 (K562): 9.06 µM (inactive)
- GI50 (SK-OV-3): 54.5 µM (inactive)
- GI50 (MCF7): 3.47 µM (inactive)
- GI50 (LOX IMVI): 10.1 µM (inactive)
- GI50 (M14): 13.6 µM (inactive)
- GI50 (Hs-578T): 16.6 µM (inactive)
- GI50 (COLO 205): 10.9 µM (inactive)
- GI50 (UACC-62): 16.1 µM (inactive)
- GI50 (SR): 9.91 µM (inactive)
- GI50 (OVCAR-3): 13.7 µM (inactive)
- GI50 (SN12C): 10.2 µM (inactive)
- GI50 (SF-295): 17.3 µM (inactive)
- GI50 (786-0): 8.67 µM (inactive)
- GI50 (A498): 15.7 µM (inactive)
- GI50 (MDA-MB-435): 11.4 µM (inactive)
- GI50 (IGROV-1): 15 µM (inactive)
- GI50 (HCC 2998): 3.85 µM (inactive)
- GI50 (OVCAR-8): 17 µM (inactive)
- GI50 (CAKI-1): 12.3 µM (inactive)
- GI50 (U-251): 16.8 µM (inactive)
- GI50 (SF-539): 17.5 µM (inactive)
- GI50 (HT-29): 10.3 µM (inactive)
- GI50 (RPMI-8226): 19.3 µM (inactive)
- GI50 (PC-3): 6.44 µM (inactive)
- GI50 (SK-MEL-2): 15.6 µM (inactive)
- GI50 (UO-31): 10.8 µM (inactive)
- GI50 (HCT-116): 9.25 µM (inactive)
- GI50 (NCI-H460): 5.73 µM (inactive)
- GI50 (Malme-3M): 14.4 µM (inactive)
- GI50 (UACC-257): 16.5 µM (inactive)
- GI50 (ACHN): 12.4 µM (inactive)
- GI50 (NCI/ADR-RES): 13.8 µM (inactive)
- GI50 (MDA-N): 11.5 µM (inactive)
- GI50 (DU-145): 8.45 µM (inactive)
- GI50 (EKVX): 7.16 µM (inactive)
- GI50 (A549): 12.3 µM (inactive)
- GI50 (SW-620): 5.74 µM (inactive)
- GI50 (BT-549): 20 µM (inactive)
- GI50 (MOLT-4): 24.6 µM (inactive)
- GI50 (NCI-H226): 18.4 µM (inactive)
- GI50 (OVCAR-5): 24.6 µM (inactive)
- GI50 (RXF 393): 8.97 µM (inactive)
- GI50 (HOP-62): 2.43 µM (inactive)
